Measured values published in ChEMBL document CHEMBL3098062, “Influenza RNA-Dependent RNA Polymerase (RdRp) Inhibitors: Potential New Therapy for Influenza Treatment” (ACS Med Chem Lett, 2013).

Tests used:
Influenza B virus = assay: Antiviral activity against Influenza B virus Lee/40 infected in human bronchial/tracheal epithelial cells after 5 days by fluorescence assay; type: functional, organism-based; conditions: B/Lee/1940, Epithelial cell, Trachea, 120 h
Influenza A virus = assay: Antiviral activity against Influenza A virus PC/1/73 infected in human bronchial/tracheal epithelial cells after 5 days by fluorescence assay; type: functional, organism-based; conditions: PC/1/73, Epithelial cell, Trachea, 120 h

| Structure (SMILES) | EC50 (Influenza B virus) | EC50 (Influenza A virus) |
| --- | --- | --- |
| CCOc1nc(N)nn2c([C@@H]3O[C@H](CO)[C@@H](O)[C@H]3F)cnc12 | > 200 µM | > 200 µM |
| Nc1nc(N)c2ncc([C@@H]3O[C@H](CO)[C@@H](O)[C@H]3F)n2n1 | 51 µM | 21 µM |
| Nc1nc(F)nn2c([C@@H]3O[C@H](CO)[C@@H](O)[C@H]3F)cnc12 | > 100 µM | > 100 µM |
| Nc1ncnn2c([C@@H]3O[C@H](CO)[C@@H](O)[C@H]3F)cnc12 | 0.9 µM | 0.9 µM |
